Laboratory results as given in PMC6270455, “Antibacterial and Herbicidal Activity of Ring-Substituted 3-Hydroxynaphthalene-2-carboxanilides” (Molecules, 2013).
Values after ≈ are worked out from the molar mass of the structure shown. Values joined by “and” are separate entries in the source; they are usually repeats but may differ in a detail not shown here. Identical values can stand only once.

How the values were obtained:
[1] = Lipophilicity determination by RP-HPLC (capacity factor, log k); type: physicochemical; settings: RP-HPLC capacity factor logarithm; C18 column, MeOH 60% / H2O 40%, 40 °C
Method: Lipophilicity of the studied compounds was determined by RP-HPLC as capacity factor logarithm (log k) and calculated as log P using ACD/Percepta software. […] It is important to note that lipophilicity also has a great impact on target and off-target interactions, as mentioned below.
A HPLC system Agilent 1200 equipped with DAD detector (Agilent, Santa Clara, CA, USA) was used. A chromatographic column Symmetry® C18 5 μm, 4.6 × 250 mm, Part No. WAT054275, (Waters Corp., Milford, MA, USA) was used. The HPLC separation process was monitored and evaluated by EZChrom Elite software ver. 3.3.2 (Agilent). Isocratic elution by a mixture of MeOH p.a. (60%) and H2O-HPLC Mili-Q grade (40%) as a mobile phase was used. The total flow of the column was 1.0 mL/min, injection 20 μL, column temperature 40 °C and sample temperature 10 °C. The detection wavelength 210 nm was chosen. The KI methanolic solution was used for the dead time (tD) determination. Retention times (tR) were measured in minutes. The capacity factors k were calculated according to formula k = (tR − tD)/tD, where tR is the retention time of the solute, whereas tD denotes the dead time obtained using an unretained analyte. Log k, calculated from the capacity factor k, is used as the lipophilicity index converted to log P scale.

[2] = system: Staphylococcus aureus ATCC 29213; assay: In vitro antibacterial susceptibility testing, broth dilution micro-method; type: cell-based; settings: ATCC29213, MH broth, 24 h, 37 °C
Method: (§1) The synthesized compounds were evaluated for in vitro antibacterial activity against representatives of multidrug-resistant bacteria, clinical isolates of methicillin-resistant Staphylococcus aureus (MRSA) 63718, SA 630 and SA 3202 that were obtained from the National Institute of Public Health, Prague, Czech Republic. Staphylococcus aureus ATCC 29213 was used as a reference and quality control strain. Ampicillin (Sigma-Aldrich) was used as the standard. Prior to testing, each strain was passaged onto nutrient agar (Oxoid, Hampshire, UK) with 5% of bovine blood, and bacterial inocula were prepared by suspending a small portion of bacterial colony in sterile phosphate buffered saline (pH 7.2–7.3). The cell density was adjusted to 0.5 McFarland units using a densitometer (Densi-La-Meter, LIAP, Riga, Latvia). The final inoculum was made by 1:20 dilution of the suspension with the Mueller-Hinton broth (MH broth). […] The broth dilution micro-method modified according to NCCLS guidelines in MH broth was used to determine the minimum inhibitory concentration (MIC). Drug-free controls, sterility controls and controls consisted of MH broth and DMSO alone were included. The determination of results was performed visually after 24 h of static incubation in the darkness at 37 °C in an aerobic atmosphere. The MICs were defined as the lowest concentration of the compound at which no visible bacterial growth was observed.

[3] = system: methicillin-resistant Staphylococcus aureus (MRSA) 63718; assay: as above; type: cell-based; settings: Staphylococcus aureus; clinical isolate MRSA 63718; MH broth, 24 h, 37 °C
Method: as §1

[4] = system: methicillin-resistant S. aureus SA 3202; assay: as above; type: cell-based, Staphylococcus aureus; settings: Staphylococcus aureus; clinical isolate MRSA SA 3202; MH broth, 24 h, 37 °C
Method: as §1

[5] = system: methicillin-resistant S. aureus SA 630; assay: as above; type: cell-based, Staphylococcus aureus; settings: Staphylococcus aureus; clinical isolate MRSA SA 630; MH broth, 24 h, 37 °C
Method: as §1

[6] = system: Mycobacterium marinum CAMP 5644; assay: In vitro antimycobacterial evaluation, broth dilution micro-method; type: cell-based; settings: CAMP5644, 504 h, Middlebrook 7H9, 21 days, 28 °C
[7] = system: M. kansasii DSM 44162; assay: as above; type: cell-based; settings: Mycobacterium kansasii, DSM44162, 168 h, Middlebrook 7H9, 7 days, 37 °C
[8] = system: photosynthetic electron transport (PET) in spinach chloroplasts; assay: Inhibition of photosynthetic electron transport (PET) in spinach chloroplasts (DCPIP photoreduction); type: biochemical, Spinacia oleracea L.; settings: phosphate buffer pH 7.2, DCPIP acceptor
Method: Chloroplasts were prepared from spinach (Spinacia oleracea L.) according to Masarovicova and Kralova. The inhibition of photosynthetic electron transport (PET) in spinach chloroplasts was determined spectrophotometrically (Genesys 6, Thermo Scientific), using an artificial electron acceptor 2,6-dichlorophenol-indophenol (DCIPP) according to Kralova et al., and the rate of photosynthetic electron transport was monitored as a photoreduction of DCPIP. The measurements were carried out in phosphate buffer (0.02 mol/L, pH 7.2) containing sucrose (0.4 mol/L), MgCl2 (0.005 mol/L) and NaCl (0.015 mol/L). The chlorophyll content was 30 mg/L in these experiments and the samples were irradiated (~100 W/m^2 with 10 cm distance) with a halogen lamp (250 W) using a 4 cm water filter to prevent warming of the samples (suspension temperature 22 °C). The studied compounds were dissolved in DMSO due to their limited water solubility. […] The inhibitory efficiency of the studied compounds was expressed by IC50 values, i.e., by molar concentration of the compounds causing 50% decrease in the oxygen evolution rate relative to the untreated control.

| SMILES | log k [1] | MIC [2] [µM] | MIC [3] [µM] | MIC [4] [µM] | MIC [5] [µM] | MIC [6] [µM] | MIC [7] [µM] | IC50 [8] |
| --- | --- | --- | --- | --- | --- | --- | --- | --- |
| O=C(Nc1ccccc1)c1cc2ccccc2cc1O [compound 1, 3-Hydroxy-N-phenylnaphthalene-2-carboxamide] | 0.6310 | > 972 | > 972 | > 972 | > 972 | 122 (≈ 32.1 µg/mL) | 972 (≈ 256 µg/mL) | – |
| O=C(Nc1ccc(Br)cc1)c1cc2ccccc2cc1O [6c, N-(4-Bromophenyl)-3-hydroxynaphthalene-2-carboxamide] | 1.1459 | > 748 | > 748 | 187 (≈ 64 µg/mL) | > 748 | > 748 | 374 (≈ 128 µg/mL) | – |
| O=C(Nc1cccc(C(F)(F)F)c1)c1cc2ccccc2cc1O [7b, 3-Hydroxy-N-(3-trifluoromethylphenyl)naphthalene-2-carboxamide] | 1.2053 | > 748 | > 748 | 187 (≈ 62 µg/mL) | 374 (≈ 124 µg/mL) | > 748 | 748 (≈ 248 µg/mL) | – |
| O=C(Nc1cccc(F)c1)c1cc2ccccc2cc1O [4b, N-(3-Fluorophenyl)-3-hydroxynaphthalene-2-carboxamide] | 0.8296 | > 910 | > 910 | 228 (≈ 64.1 µg/mL) | 455 (≈ 128 µg/mL) | 114 (≈ 32.1 µg/mL) | 114 (≈ 32.1 µg/mL) | – |
| O=C(Nc1ccc(Cl)cc1)c1cc2ccccc2cc1O [5c, N-(4-Chlorophenyl)-3-hydroxynaphthalene-2-carboxamide] | 1.0687 | > 860 | > 860 | > 860 | > 860 | > 860 | 430 (≈ 128 µg/mL) | – |
| COc1ccc(NC(=O)c2cc3ccccc3cc2O)cc1 [2c, 3-Hydroxy-N-(4-methoxyphenyl)naphthalene-2-carboxamide] | 0.5951 | > 873 | > 873 | > 873 | > 873 | > 873 | 873 (≈ 256 µg/mL) | – |
| CN(C)C(=O)Nc1ccc(Cl)c(Cl)c1 [DCMU, 3-(3,4-dichlorophenyl)-1,1-dimethylurea, reference compound] | – | – | – | – | – | – | – | ~1900 nM and 1900 nM |
| O=C(Nc1ccc(F)cc1)c1cc2ccccc2cc1O [4c, N-(4-Fluorophenyl)-3-hydroxynaphthalene-2-carboxamide] | 0.7317 | > 910 | > 910 | 228 (≈ 64.1 µg/mL) | 455 (≈ 128 µg/mL) | 910 (≈ 256 µg/mL) | 114 (≈ 32.1 µg/mL) | – |
| NNC(=O)c1ccncc1 [INH, isoniazid, reference compound] | – | – | – | – | – | 467 (≈ 64 µg/mL) | – | – |
| O=C(Nc1ccccc1Cl)c1cc2ccccc2cc1O [5a, N-(2-Chlorophenyl)-3-hydroxynaphthalene-2-carboxamide] | 0.9509 | > 860 | > 860 | 215 (≈ 64 µg/mL) | > 860 | 860 (≈ 256 µg/mL) | 860 (≈ 256 µg/mL) | – |
| O=C(Nc1ccccc1F)c1cc2ccccc2cc1O [compound 4a, N-(2-Fluorophenyl)-3-hydroxynaphthalene-2-carboxamide] | 0.7303 | > 910 | > 910 | 228 (≈ 64.1 µg/mL) | 455 (≈ 128 µg/mL) | 28.4 (≈ 7.99 µg/mL) | 56.9 (≈ 16 µg/mL) | – |
| O=C(Nc1cccc(Br)c1)c1cc2ccccc2cc1O [6b, N-(3-Bromophenyl)-3-hydroxynaphthalene-2-carboxamide] | 1.1536 | > 748 | > 748 | 187 (≈ 64 µg/mL) | > 748 | > 748 | 748 (≈ 256 µg/mL) | – |
| Cc1cccc(NC(=O)c2cc3ccccc3cc2O)c1 [3b, 3-Hydroxy-N-(3-methylphenyl)naphthalene-2-carboxamide] | 0.8831 | > 923 | > 923 | 462 (≈ 128 µg/mL) | > 923 | 923 (≈ 256 µg/mL) | 57.7 (≈ 16 µg/mL) | – |
| CC1(C)S[C@@H]2[C@H](NC(=O)[C@H](N)c3ccccc3)C(=O)N2[C@H]1C(=O)O [APC, ampicillin, reference compound] | – | 5.7 (≈ 1.99 µg/mL) | > 45.8 | > 45.8 | > 45.8 | – | – | – |
| O=C(Nc1cccc(Cl)c1)c1cc2ccccc2cc1O [5b, N-(3-Chlorophenyl)-3-hydroxynaphthalene-2-carboxamide] | 1.0796 | > 860 | > 860 | 215 (≈ 64 µg/mL) | 430 (≈ 128 µg/mL) | > 860 | 860 (≈ 256 µg/mL) | – |
| Cc1ccc(NC(=O)c2cc3ccccc3cc2O)cc1 [3c, 3-Hydroxy-N-(4-methylphenyl)naphthalene-2-carboxamide] | 0.8753 | > 923 | > 923 | 231 (≈ 64.1 µg/mL) | 462 (≈ 128 µg/mL) | > 923 | 923 (≈ 256 µg/mL) | – |
| Cc1ccccc1NC(=O)c1cc2ccccc2cc1O [3a, 3-Hydroxy-N-(2-methylphenyl)naphthalene-2-carboxamide] | 0.6936 | > 923 | > 923 | 462 (≈ 128 µg/mL) | > 923 | 462 (≈ 128 µg/mL) | 115 (≈ 31.9 µg/mL) | – |
| O=C(Nc1ccc(C(F)(F)F)cc1)c1cc2ccccc2cc1O [7c, 3-Hydroxy-N-(4-trifluoromethylphenyl)naphthalene-2-carboxamide] | 1.2835 | > 748 | > 748 | 187 (≈ 62 µg/mL) | 374 (≈ 124 µg/mL) | > 748 | 187 (≈ 62 µg/mL) | – |
